pEC50, pIC50: −log10 of the molar value. Like-named read-outs stand apart in the source and are kept apart here.
Experiments:
Des1 = Des1 (Homo sapiens (Human), UniProt O15121); assay: Jurkat T cell measurement of conversion of dihydroceramide to ceramide; type: cell-based; conditions: for inhibition at 1 µM: 1 μM compound, read-out: Des1 % Inhib (1 μM); for inhibition at 0.5 µM: read-out: Des1 % Inhib (0.5 μM)
Method: Jurkat T Cell Measurement of Conversion of Dihydroceramide to Ceramide
Jurkat clone E6-1 cells were grown and then seeded at 10^6 cells/mL in a 96-well plate (400 μL in each well. The cells were administered 100 μL of cell culture media containing 50-μM NBD-C6-dihydroceramide (Des1 substrate), affording a final concentration of substrate of 10 μM. The cells were incubated with substrate at 4° C. for 30 minutes. Following the incubation at 4° C., the cell suspension was centrifuged at 1200 rpm for 3 minutes, and the cell pellet is resuspended in 400 μL of fresh media containing various concentrations of either fenretinide (known Des1 inhibitor control compound) or test article. The final concentrations of control compound and test compounds were tested in a range from 0-10 μM. The cells and compounds were incubated at 37° C. for 3 hours. Following the 3-hour incubation, the plate was centrifuged at 2500 g for 3 minutes at 4° C., followed by collection and transfer of 200 μL of the supernatant to a new 96-well plate with 300 μL of methanol an containing appropriate internal standards for liquid chromatography/tandem mass spectroscopy (LC/MS/MS) analysis (internal standard: 500 nM labetalol and 100 nM alprazolam). The samples were vortexed for 2 minutes followed by centrifugation at 3,220 g for 20 minutes. Following centrifugation, 200 μL of the supernatant was transferred to a new 96-well plate for LC-MS/MS analysis to determine the amount of NBD-C6-ceramide (Des1 product) produced. The assay was typically performed in duplicate. A reduction of at least 30% compared to vehicle control (0 μM test article) is indicative of an active compound, and a reduction of 75% compared to vehicle control is preferred.

CFTR-KO mice = conditions: cited from earlier work
[1] = system: insulin-stimulated Akt phosphorylation in C2C12 myotubes; assay: C2C12 myotube assay of insulin-stimulated phosphorylation of Akt; type: cell-based; conditions: Mus musculus, in the presence of palmitate, read-out: half-maximal effective concentration (EC50) for increasing insulin-stimulated Akt phosphorylation
Method: C2C12 Myotube Assay of Insulin-Stimulated Phosphorylation of Akt:
C2C12 myotubes are treated with 0.75 mM BSA-conjugated palmitate for 16 hours in the presence or absence of 7 non-zero concentrations of fenretinide (Des1 inhibitor control compound) or various test articles, followed by a 10-minute stimulation with insulin (100 nM). Cells are subsequently harvested and boiled in reducing SDS sample buffer and subjected to SDS-PAGE followed by detection of phosphorylated Akt, total Akt, and a suitable loading control (e.g. actin or GAPDH) by western blot using fluorescently-conjugated secondary antibodies. Band intensities are quantitated by an Odyssey imaging system (Li-COR), but could also be performed using HRP-conjugated secondary antibodies/enhanced chemiluminescence or by colorimetric readout.
Moreover, while currently contemplated for SDS-PAGE/immunoblot format, this assay could be adapted to ELISA or in-cell western (immunocytochemistry) formats for higher throughput testing of compounds. An increase of 30% compared to vehicle control (0 μM test article) is indicative of an active compound, and an increase of 50% compared to control is preferred. […] Des1 inhibitors disclosed herein are expected to be effective in this assay.

[2] = Jurkat clone E6-1 cells, NBD-C6-dihydroceramide substrate, read-out: Des1 IC50
[3] = 0.5 μM compound, Jurkat clone E6-1 cells

Sequence of Des1 (O15121 whole entry): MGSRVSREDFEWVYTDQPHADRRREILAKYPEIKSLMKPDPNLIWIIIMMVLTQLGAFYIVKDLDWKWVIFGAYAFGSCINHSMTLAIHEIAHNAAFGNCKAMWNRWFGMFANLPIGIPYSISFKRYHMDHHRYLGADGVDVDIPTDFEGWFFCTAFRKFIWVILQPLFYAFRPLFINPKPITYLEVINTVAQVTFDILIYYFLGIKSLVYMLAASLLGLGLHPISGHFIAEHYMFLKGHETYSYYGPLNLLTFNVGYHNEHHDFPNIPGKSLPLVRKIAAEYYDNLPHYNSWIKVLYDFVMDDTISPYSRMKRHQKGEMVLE

Compound	pIC50 (Des1; [2])	inhibition at 0.5 µM (Des1; [3]) [%]	further results
O=C(Nc1ccc(O)cn1)c1ccccc1 [Example 25, N-(5-hydroxy-pyridin-2-yl)-benzamide]			inhibition at 1 µM (Des1; Jurkat clone E6-1 cells): 4.44%
COc1ccc(C(=O)Nc2ccc(O)cn2)cc1 [Example 26, N-(5-hydroxy-pyridin-2-yl)-4-methoxy-benzamide]	6.62		inhibition at 1 µM (Des1; Jurkat clone E6-1 cells): 74.5%
CC(C)c1ccc(C(=O)Nc2ccc(O)cn2)cc1 [Example 27, N-(5-hydroxy-pyridin-2-yl)-4-isopropyl-benzamide]	7.80		
O=C(Nc1ccc(O)cn1)[C@H]1CC[C@H](c2ccccc2)CC1 [Example 28, (1r,4r)-N-(5-hydroxy-pyridin-2-yl)-4-phenyl-cyclohexane-1-carboxamide]	8.30		inhibition at 1 µM (Des1; Jurkat clone E6-1 cells): 96.2%
CCCCCCCC(=O)Nc1ccc(O)cn1 [Example 29, N-(5-hydroxy-pyridin-2-yl)-octanamide]	8.22		inhibition at 1 µM (Des1; Jurkat clone E6-1 cells): 95.7%
O=C(Nc1ccc(O)cn1)C1CCCCC1 [Example 30, N-(5-hydroxy-pyridin-2-yl)-cyclohexane-carboxamide]		49.5	
CC(C)CCCCCC(=O)Nc1ccc(O)cn1 [Example 31, N-(5-hydroxy-pyridin-2-yl)-7-methyloctan-amide]	9.00		inhibition at 0.5 µM (Des1; Jurkat): 91%
O=C(Nc1ccc(O)cn1)[C@H]1CC[C@H](c2ccc(Cl)cc2)CC1 [Example 32, (1r,4r)-4-(4-chlorophenyl)-N-(5-hydroxy-pyridin-2-yl)-cyclohexane-1-carboxamide]	9.00		inhibition at 0.5 µM (Des1; Jurkat): 96.8%
O=C(Nc1ccc(O)cn1)c1ccc(-c2ccccn2)cc1 [Example 33, N-(5-hydroxy-pyridin-2-yl)-4-(pyridin-2-yl)benzamide]		71.1	
O=C(Nc1ccc(O)cn1)c1ccc(-c2cccnc2)cc1 [Example 34, N-(5-hydroxy-pyridin-2-yl)-4-(pyridin-3-yl)benzamide]		85.6	
CC(C)(C)c1ccc(C(=O)Nc2ccc(O)cn2)cc1 [Example 35, 4-(tert-butyl)-N-(5-hydroxy-pyridin-2-yl)-benzamide]	8.40	90	inhibition at 1 µM (Des1; Jurkat clone E6-1 cells): 95.7%
COCCCCCC(=O)Nc1ccc(O)cn1 [Example 36, N-(5-hydroxy-pyridin-2-yl)-6-methoxy-hexanamide]		44.8	
CC(C)OCCCCC(=O)Nc1ccc(O)cn1 [Example 37, N-(5-hydroxy-pyridin-2-yl)-5-isopropoxy-pentanamide]	7.68	93.7	
O=C(Nc1ccc(O)cn1)c1ccc(-c2ccccc2Cl)cc1 [Example 38, 2′-chloro-N-(5-hydroxy-pyridin-2-yl)-[1,1′-biphenyl]-4-carboxamide]	7.72	95.4	
O=C(Nc1ccc(O)cn1)c1ccc(-c2c(Cl)cccc2Cl)cc1 [Example 39, 2′,6′-dichloro-N-(5-hydroxy-pyridin-2-yI)-[1,1′-biphenyl]-4-carboxamide]		65.9	
CC(C)O[C@H]1CC[C@H](C(=O)Nc2ccc(O)cn2)CC1 [Example 40, (1r,4r)-N-(5-hydroxypyridin-2-yl)-4-iso-propoxycyclo-hexane-1-carboxamide]	7.68	92.6	

Compound	pIC50 (Des1; [2])	inhibition at 0.5 µM (Des1; [3]) [%]	further results
CC(C)O[C@H]1CC[C@@H](C(=O)Nc2ccc(O)cn2)CC1 [Example 41, (1s,4s)-N-(5-hydroxypyridin-2-yl)-4-iso-propoxycyclo-hexane-1-carboxamide]	7.06	81.3	
CCc1ccc(C(=O)Nc2ccc(O)cn2)cc1 [Example 42, 4-ethyl-N-(5-hydroxy-pyridin-2-yl)-benzamide]	6.89	85.5	
Cc1ccc(C(=O)Nc2ccc(O)cn2)cc1 [Example 43, N-(5-hydroxy-pyridin-2-yl)-4-methylbenz-amide]		59.3	
O=C(Nc1ccc(O)cn1)c1ccc(C(F)(F)F)cc1 [Example 44, N-(5-hydroxy-pyridin-2-yl)-4-(trifluoro-methyl)-benzamide]	7.20	88	
CC(c1ccc(C(=O)Nc2ccc(O)cn2)cc1)C(F)(F)F (stereo not drawn) [Example 45, N-(5-hydroxy-pyridin-2-yl)-4-(1,1,1-trifluoro-propan-2-yl)-benzamide]	7.64	94	
O=C(CC1CCN(c2ccc(C(F)(F)F)cc2)CC1)Nc1ccc(O)cn1 [Example 46, N-(5-hydroxypyridin-2-yl)-2-[1-[4-(trifluoromethyl)phenyl]piperidin-4-yl]acetamide]		96.2	
O=C(CN1CCN(c2ccc(C(F)(F)F)cc2)CC1)Nc1ccc(O)cn1 [Example 47, N-(5-hydroxypyridin-2-yl)-2-[4-[4-(trifluoromethyl)phenyl]piperazin-1-yl]acetamide]	7.30		
O=C(Nc1ccc(O)cn1)C1CCCN(c2ccc(F)cc2)C1 (stereo not drawn) [Example 48, 1-(4-fluorophenyl)-N-(5-hydroxypyridin-2-yl)piperidine-3-carboxamide]	6.60	91.3	
O=C(CC1CCN(c2ccc(F)cc2)CC1)Nc1ccc(O)cn1 [Example 49, 2-[1-(4-fluorophenyl)piperidin-4-yl]-N-(5-hydroxypyridin-2-yl)acetamide]	7.89	96.8	
O=C(CN1CCN(c2ccc(F)cc2)CC1)Nc1ccc(O)cn1 [Example 50, 2-[4-(4-fluorophenyl)piperazin-1-yl]-N-(5-hydroxypyridin-2-yl)acetamide]	6.85	92.3	
O=C(CC1CCN(c2ccc(Cl)cc2)CC1)Nc1ccc(O)cn1 [Example 51, 2-[1-(4-chlorophenyl)piperidin-4-yl]-N-(5-hydroxypyridin-2-yl)acetamide]	8.30	97.3	
O=C(CN1CCN(c2ccc(Cl)cc2)CC1)Nc1ccc(O)cn1 [Example 52, 2-[4-(4-chlorophenyl)piperazin-1-yl]-N-(5-hydroxypyridin-2-yl)acetamide]	7.18	94.1	
O=C(Nc1ccc(O)cn1)C1CCN(c2ccc(C(F)(F)F)cc2)CC1 [Example 53, N-(5-hydroxypyridin-2-yl)-1-[4-(trifluoromethyl)phenyl]piperidine-4-carboxamide]	8.70		
O=C(Nc1ccc(O)cn1)C1CCN(c2ccc(F)cc2)CC1 [Example 54, 1-(4-fluorophenyl)-N-(5-hydroxypyridin-2-yl)piperidine-4-carboxamide]	7.96	96.6	
CC1=C(/C=C/C(C)=C/C=C/C(C)=C/C(=O)Nc2ccc(O)cc2)C(C)(C)CCC1 [fenretinide]			susceptibility to infection with Pseudomonas aeruginosa (CFTR-KO mice; CFTR-KO mice): reduce susceptibility to infection with Pseudomonas aeruginosa; lung AA/DHA ratio (CFTR-KO mice; lungs of CFTR-KO mice): normalize this ratio; pEC50 [1]: 6.22; pIC50 (Des1; Jurkat clone E6-1 cells, read-out: half-maximal inhibitory concentration (IC50)): 6.60 to 7.00

— US11135207B2, “Inhibitors of dihydroceramide desaturase for treating disease” (Centaurus Therapeutics, priority 2016, dated 2021)
